US10231979B2, “Modulation of inflammation using progesterone metabolites” (Indiana University Research and Technology Corporation, priority 2015, dated 2019)
Where “and” joins values, the source holds several entries; their conditions need not be identical. Equal entries are not always repeated. Where two headings read alike, the source gives them in different places.

Key:
[1] = tested on: uterine horns from wild-type (WT) C57BL/6J female mice; assay: Spontaneous uterine contractility, isolated uterine horns in tissue organ bath; details: for Spontaneous contractile force compared with the vehicle control (in words) / Spontaneous uterine contraction frequency compared to vehicle control (in words) / Contractile Frequency/10 min (% of baseline), Drug / Contractile Force (% of baseline), Drug: maximal treatment dose; for Contractile Frequency/10 min (% of baseline), Drug / Contractile Force (% of baseline), Drug: spontaneous contractility; for Contractile Force (% of baseline), Drug: AUC as % of baseline AUC; for IC50: spontaneous, dose-response 10^-9 to 10^-6 mol/L
Description: (§1) FIGS. 2A & 2B are representative contraction tracings of uterine horns from wild-type (WT) C57BL/6J female mice. FIG. 2A: Uterine horns were isolated and suspended in a tissue organ bath at 0.5 g of tension. Once equilibrated, selected progestin treatments were added in successively increasing concentrations from 10^−9 to 10^−6 mol/L in 20-minute intervals to assess effect on spontaneous contractile activity (progesterone treatment, bottom panel). The contralateral horn from each mouse was treated with a matching ethanol vehicle (top panel). All contraction responses were measured and reported as the area under the contraction curve (AUC), normalized to the AUC of the spontaneous contraction pattern that preceded treatment. FIG. 2B: Treatment effect on oxytocin-induced contractility was assessed by exposing horns to selected progestin treatments (10^−6 mol/L), followed by increasing doses of oxytocin (Oxt) (1, 10, 50, and 100 nmol/L) in 10-minute intervals (bottom panel). The contralateral horn from each mouse was treated with a matching ethanol vehicle (top panel). Contraction responses were measured and reported as described above.
(§2) All progestins were solubilized in ethanol and then diluted in phosphate-buffered saline to the desired molar concentration. […] The concentration of ethanol decreased parallel to the progestin dose in order to minimize the effect of the solvent on uterine contractility.
(§3) Virgin nonpregnant wild-type C57BL/6J female mice (Jackson Labs, Bar Harbor, Me.) were obtained at 10 to 12 weeks of age and fed a standard diet. Mice were euthanized by an IACUC-approved protocol, and each of the 2 uterine horns were removed. A 1 cm×0.5 cm segment of the uterine horn was suspended using 4-0 silk suture between a stainless steel wire hook connected to a Radnoti force displacement transducer (Radnoti LLC, Monrovia, Calif.) and a glass hook inside an organ bath that served as an anchor. The bath was filled with modified Krebs buffer (118 mmol/L NaCl, […], 1.2 mmol/L MgSO4, 1.2 mmol/L KH2PO4, 2.5 mmol/L CaCl2, 25 mmol/L NaHCO3, and 11 mmol/L glucose, pH 7.4), maintained at 37° C., and constantly bubbled with a premixed gas consisting of 20% O2, 5% CO2, and balance N2. Uterine horns were equilibrated at 0.5 g of tension for approximately 30 minutes until a spontaneous contraction pattern was established.
A total of 60 mice were utilized to assess the effect of the selected treatments on uterine contractility, 30 in the spontaneous contraction group and 30 in the oxytocin-induced group. Six mice were in each progestin treatment group during both spontaneous and oxytocin-induced contractility arms of the study. To determine the nongenomic (acute) effect of the progestin treatments on spontaneous uterine contractility, a segment of uterine horn from each mouse was exposed to a single progestin (progesterone, 17-OHPC, 2α-OHP, 6β-OHP, or 16αOHP), while a segment of the contralateral horn was exposed to a matching dose of ethanol vehicle. After a spontaneous contraction pattern was achieved, the progestin treatment was added to the tissue organ bath in successively increasing concentrations from 10^−9 to 10^−6 mol/L in 20-minute intervals. At the end of the treatments, the tissue was washed in modified Krebs buffer and then exposed to KCl (60 mmol/L) to elicit a tetanic response and confirm tissue viability.
Uterine contraction responses were recorded using LabChart Pro (ADInstruments, Colorado Springs, Colo.) software as the force generated with time (g×min). Baseline uterine contractility was calculated as the area under the curve (AUC) for a 10-minute period of spontaneous contractions. The AUC of the uterine contractile response to each treatment (progestin or oxytocin) was determined and expressed as a percentage of the baseline AUC observed during spontaneous contraction. […]

[2] = tested on: uterine horns from wild-type (WT) C57BL/6J female mice; assay: Oxytocin-induced uterine contractility after progestin pretreatment, isolated uterine horns in tissue organ bath; details: for Oxytocin-induced contractile force compared to vehicle control (in words) / Oxytocin-induced contraction frequency compared to control (in words) / Contractile Force (% of baseline), Drug / Contractile Frequency/10 min (% of baseline), Drug: maximal oxytocin dose (100 nmol/L); for EC50: oxytocin-induced dose-response (1-100 nmol/L oxytocin) after progestin pretreatment 10^-6 mol/L; for Contractile Force (% of baseline), Drug / Contractile Frequency/10 min (% of baseline), Drug: oxytocin-induced, progestin pretreatment 10^-6 mol/L
Description: as §1, §2, §3
To determine the nongenomic effect of progestin treatments on oxytocin-induced uterine contractility, the uterine horns were pretreated with a single progestin at 10^−6 mol/L for 10 minutes after a spontaneous contractile pattern was established. The contralateral horn from the same mouse was treated with ethanol vehicle at a matching concentration. The uterine horns were subsequently exposed to increasing concentrations of oxytocin (1, 10, 50, and 100 nmol/L) in 10-minute intervals. At the end of the oxytocin treatments, the tissue was washed and then exposed to KCl (60 mmol/L) to elicit a tetanic response and confirm tissue viability.
Uterine contraction responses were recorded using LabChart Pro (ADInstruments, Colorado Springs, Colo.) software as the force generated with time (g×min). Baseline uterine contractility was calculated as the area under the curve (AUC) for a 10-minute period of spontaneous contractions. The AUC of the uterine contractile response to each treatment (progestin or oxytocin) was determined and expressed as a percentage of the baseline AUC observed during spontaneous contraction. […] To account for repeated measurements for individual muscle strips at increasing treatment doses, a repeated measures 2-way analysis of variance model was used to compare the dose-response curves. Each dose-response curve was fit by nonlinear regression and compared using an extra sum of squares F test. The mean max-fit response was compared between each progestin and vehicle control to determine maximum treatment efficacy. […]

[3] = tested on: primary uterine smooth muscle cells (UtSMC); assay: IL-6 production in UtSMC stimulated with LPS; type: cell-based; details: for IL-6 / IL-6, % of positive control: UtSMC pre-treated, then LPS; for IL-6: LPS positive control 121.7 pg/mL; for IL-6, % of positive control: relative to DMSO+LPS positive control
Description: In this Example, the effect of progesterone metabolites 16αOHP and 6β-OHP on inflammation in primary uterine smooth muscle cells (UtSMC) was analyzed.
UtSMC were cultured in the presence of DMSO and one of the following: (1) progesterone; (2) […]; (3) 6β-OHP; and (4) 16αOHP. Lipopolysaccharide (LPS) was then added to the culture to stimulate an immune inflammatory reaction. Experiments were performed in triplicate.

THP-1 monocyte cells = assay: Flow cytometry of monocyte-derived macrophage population (PMA differentiation); type: cell-based; details: THP-1 pre-treated 24 hours, then PMA
Description: FIGS. 6A-6C depict flow cytometry of a monocyte-derived macrophage population pre-treated with progesterone metabolites. THP-1 monocyte cells were pre-treated with progesterone metabolites 16αOHP and 6β-OHP for 24 hours, then stimulated to differentiate to macrophages by exposure to PMA.
THP-1 monocyte cells were pre-treated with progesterone metabolites 16αOHP and 6β-OHP for 24 hours, then stimulated to differentiate to macrophages by exposure to phorbol 12-myristate 13-acetate (PMA).

[4] = tested on: primary uterine smooth muscle cells (UtSMC); assay: IL-6 production in UtSMC stimulated with TNF-α; type: cell-based
Source text: FIGS. 5A & 5B are graphs depicting the effect of progesterone metabolites 16αOHP and 6β-OHP on inflammation in primary uterine smooth muscle cells (UtSMC).

THP-1 monocytes = assay: IL-6 production in THP-1 monocytes stimulated with LPS; type: cell-based; details: THP-1 monocytes pretreated, then LPS; versus positive control
Description: FIG. 9 is a graph depicting the effect of progesterone and progesterone metabolites (16αOHP and 6β-OHP) on inflammation in THP-1 monocytes stimulated with LPS.
In this Example, the effect of progesterone and progesterone metabolites (16αOHP and 6β-OHP) on inflammation in THP-1 monocytes stimulated with LPS was analyzed.

[5] = read-out: Contractile Force IC50
[6] = read-out: Contractile Frequency IC50
[7] = read-out: Contractile Force EC50
[8] = read-out: Contractile Frequency EC50

Structure (SMILES) | Spontaneous contractile force compared with the vehicle control (in words) [1] | Spontaneous uterine contraction frequency compared to vehicle control (in words) [1] | Contractile Frequency/10 min (% of baseline), Drug [1] | Contractile Force (% of baseline), Drug [1] | IC50 [1, 5] | IC50 [1, 6] | Oxytocin-induced contractile force compared to vehicle control (in words) [2] | Oxytocin-induced contraction frequency compared to control (in words) [2] | EC50 [2, 7] | EC50 [2, 8] | Contractile Force (% of baseline), Drug [2] | Contractile Frequency/10 min (% of baseline), Drug [2] | IL-6 [3] | IL-6, % of positive control [3] | other results
CC(=O)[C@H]1CC[C@H]2[C@@H]3CCC4=CC(=O)[C@H](O)C[C@]4(C)[C@H]3CC[C@]12C [2α-OHP, 4-pregnen-2α-ol-3,20-dione] | No significant difference | not significantly decreased | 53.7% of baseline | 37.9% of baseline | 0.32 nM | 0.55 nM | no differences | not | 68.2 nM | 646 nM | 329.5% of baseline | 168.9% of baseline |  |  | 
CC(=O)[C@H]1[C@H](O)C[C@H]2[C@@H]3CCC4=CC(=O)CC[C@]4(C)[C@H]3CC[C@@]21C [16α-OHP, 4-pregnen-16α-ol-3,20-dione] | No significant difference | not significantly decreased | 57% of baseline | 37.2% of baseline | 0.77 nM | 0.74 nM | no differences | decreased significantly | 142 nM | 8.46 nM | 301.6% of baseline | 216.9% of baseline | 98.7 pg/mL | 83% | IL-6 production (in words) ([3]; UtSMC stimulated with LPS): reduced IL-6 production; Macrophage population/phenotype compared to DMSO treated control (in words) (THP-1 monocyte cells): decrease in the macrophage population/phenotype; IL-6 production (in words) [4]: decreased IL-6 production; Effect on oxytocin-induced uterine contractility (in words) [2]: decreased; Contractile Frequency/10 min (% of baseline), Drug ([2]; listed as 16αOHP): 217 % of baseline; Inflammatory response (IL-6 production) (in words) (THP-1 monocytes): significantly decreased IL-6 production
CCCCCC(=O)O[C@]1(C(C)=O)CC[C@H]2[C@@H]3CCC4=CC(=O)CC[C@]4(C)[C@H]3CC[C@@]21C [17-OHPC, 4-pregnen-17-ol-3,20-dione caproate, reference compound] | No significant difference | not significantly decreased | 57.9% of baseline | 50.4% of baseline |  |  |  | decreased significantly |  |  | 218.4 % of baseline | 130 % of baseline and 130.2% of baseline |  |  | IC50 ([1]; Mus musculus, read-out: Contractile Force IC50): 0.78 nM; IC50 ([1]; Mus musculus, read-out: Contractile Frequency IC50): 0.31 nM; EC50 ([2]; Mus musculus, read-out: Contractile Force EC50): 8.43 nM; EC50 ([2]; Mus musculus, read-out: Contractile Frequency EC50): 3.26 nM
C[C@]12CC[C@@H]3c4ccc(O)cc4CC[C@H]3[C@@H]1CC[C@@H]2O [E2, reference compound] |  |  |  |  |  |  |  |  |  |  |  |  | 126 pg/mL | 103% | 
